# Test results published in publication PMC3923730 (Journal of Translational Medicine, 2014).
# Where “and” joins values, the source holds several entries; their conditions need not be identical. Equal entries are not always repeated.
# What was measured:
# [1] = test system: myocardial infarction model in rats; assay: Myocardial infarction model in rats (35 min CAO, reperfusion, infarct size by TTC); assay type: in vivo; conditions: rat; for IS (% AAR) / IS (% LV) / IS (% Vehicle IS): 24 h reperfusion, mean ± S.E.M.; for reduction of infarct size compared to control: p < 0.001
# Procedure: In all groups of rats, the left anterior descending coronary artery was occluded during 35 min and released for reperfusion as previously described. For the dose range testing, the vehicle (IL30) or TRO40303 solution in IL30 (stock solution diluted in IL30 to administer ~1.5 mL/kg in each group) at increasing doses (0.3, 1, 3 and 10 mg/kg) were administered as a 5 min infusion through the jugular vein starting 10 min before coronary artery reperfusion (CAR). To evaluate the therapeutic window, the vehicle or TRO40303 at 1 mg/kg were also administered either 10 min before coronary artery occlusion (CAO) or 10 min after CAR. Infarct size was determined by triphenyltetrazolium chloride (TTC) staining and was calculated as a percentage of the area at risk (AAR), 24 h after reperfusion. For the dose range experiment, infarct size was expressed for all doses as a percent of the vehicle group infarct size.
# [2] = Pharmacokinetics in rats (plasma); assay type: in vivo; conditions: rat plasma
# Procedure: TRO40303 was administered by intravenous (i.v.) bolus to healthy rats at doses of 0.3, 1, 3 and 10 mg/kg in IL30 under isoflurane gas anaesthesia. A maximum of 0.25 mL of blood was collected into lithium heparin tubes at 5, 15 and 30 min, 1 h, 2 h, 4 h, 8 h and 24 h after drug administration (3 rats per time point). The blood samples were cooled on ice and plasma samples were prepared within 60 min of sampling by centrifugation at 1500 g at 4 °C for 10 min and stored at –20°C until analysis. For heart level measurements, TRO40303 was administrated i.v. to rats undergoing the myocardial infarction procedure at the dose of 1 mg/kg in IL30 either 10 min before CAO or 10 min before CAR. Five min after CAR, rats were anesthetised and sacrificed, hearts were isolated and washed with saline. Tissue from AAR was separated from the remainder of the left ventricle; samples were frozen and stored at –20°C until analysis. After TRO40303 plasma concentration analysis, TRO40303 plasma AUC(0-∞) (the area under the curve extrapolated from time zero to time infinity), was calculated using Kinetica™, version 4.4.1 (Thermo Electron Corporation, Philadelphia, PA 19103, USA). The results were analyzed in comparison with previous pharmacokinetic data obtained with TRO40303 formulated in HPBCD at 2.5 mg/kg.
# Thawed preclinical samples were extracted with acetonitrile, centrifuged, purified on SPEC C2 cartridge (Varian) for the heart samples and analysed along with calibration standards. Analysis was carried out on an Alliance 2695 (Waters) system interfaced to an API Quattro Micro (Waters) MS detector. Calculations were carried out with Waters QuanLynx software.
# [3] = test system: isolated rat heart; assay: Langendorff isolated rat heart ischemia-reperfusion, hemodynamic measurements; conditions: 1 μM, vs 0.03% HPBCD
# Procedure: Ischemic reperfusion of Langendorff isolated rat heart was performed as previously described. Rat hearts were perfused either with TRO40303 1 μM (0.5 mg/mL stock in 30% HPBCD diluted 1000X in Krebs-Henseleit (KH) buffer (n = 29)) or vehicle (30% HPBCD diluted 1000X in KH buffer (n = 24)) during 30 min equilibration, 10 min low flow ischemia, and 60 min reperfusion following 30 min of total ischemia. During the reperfusion period, the following parameters were monitored via a water-filled latex balloon inserted into the left ventricle: left ventricular end diastolic pressure (LVEDP); left ventricular developed pressure (Pdev); its first derivative (dP/dt) and heart rate. Coronary flow was measured by collecting the coronary perfusate over 1 min. The rate-pressure product (RPP) was calculated as the product of Pdev and heart rate. Some of the hearts from this main experiment were used to assess ascorbate, reactive oxygen species (ROS) and lipid peroxidation as described below.
# [4] = test system: healthy male and post-menopausal female subjects; assay: Phase I trial safety and tolerability; assay type: in vivo; conditions: human
# Procedure: A randomized, double-blind, placebo controlled study was performed to investigate the safety, tolerability and pharmacokinetics of single i.v. ascending doses of TRO40303 in healthy male and post-menopausal female subjects. The choice of the dose and flow rate escalation process is explained in the Result section. Seventy-two healthy volunteers were randomized, with 18 receiving a placebo and 54 an active liposomal formulation containing 20 mg/mL TRO40303 at final doses ranging from 0.5, 1, 2, 3.5, 6, 10 to 13 mg/kg with escalating flow rates from 0.04 mL/min to 35 mL/min. Within each group, 3 or 6 subjects received TRO40303 and 1 or 2 subjects received the same volume of placebo. The sample size was based on the number of doses and flow rates to be investigated. The 6 verum/2 placebo ratio per group is widely used in single ascending dose studies and provides adequate safety and pharmacokinetic information. The 3 verum/1 placebo ratio used in the last groups was chosen only to explore additional flow rates at previously studied doses.
# Continuous recording of adverse events, continuous blood pressure monitoring for 2 hours after dosing and 12-lead electrocardiogram (ECG) at pre-dose, 15 min, 1 h, 4 h, 8 h, 24 h, 72 h and 96 h after end of infusion were performed. Vital signs, physical examination, haematology, blood biochemistry, urinalysis and haemostasis were performed before the study, at specific times after dosing and at the “end of study visit”, 7 days after administration. Blood biochemistry analysis included ASAT, ALAT, alkaline phosphatase, triglycerides, total cholesterol, HDL-cholesterol and LDL-cholesterol.
# [5] = 0.3 mg/kg in IL30 i.v. 10 min before CAR
# [6] = 1 mg/kg in IL30 i.v. 10 min before CAR
# [7] = 3 mg/kg in IL30 i.v. 10 min before CAR
# [8] = 10 mg/kg in IL30 i.v. 10 min before CAR
# [9] = 0.5 mg/kg, 0.08 mL/min, back pain
# [10] = 2 mg/kg, 0.64 mL/min, injection site haematoma
# [11] = 3.5 mg/kg, 5 mL/min, presyncope
# [12] = 6 mg/kg, 7.5 mL/min, infusion site inflammation
# [13] = 6 mg/kg, 23 mL/min, vision blurred
# [14] = single i.v. 0.5-13 mg/kg, flow rates 0.04-35 mL/min
smiles,measurement,setting,value
"CC(C)CCC[C@@H](C)[C@H]1CC[C@H]2[C@@H]3CC/C(=N\O)[C@](C)(CCCO)[C@H]3CC[C@]12C [TRO40303, 3,5-seco-4-nor-cholestan-5-one oxime-3-ol]",IS (% AAR),[1]; [5],26 ± 4 % AAR
same,IS (% LV),[1]; [5],11 ± 2 % LV
same,IS (% Vehicle IS),[1]; [5],77 ± 15 % Vehicle IS
same,infarct size compared to vehicle,"[1]; 0.3 mg/kg in IL30 i.v. bolus 10 min before reperfusion, 24 h after reperfusion",smaller but not significantly different
same,infarct size compared to vehicle,[1]; 1 mg/kg in IL30 10 min after the onset of CAR,unchanged
same,reduction of infarct size compared to vehicle,[1]; 1 mg/kg in IL30 10 min before 35 min CAO,55%
same,IS (% AAR),[1]; [6],19 ± 2 % AAR
same,IS (% LV),[1]; [6],7 ± 1 % LV
same,IS (% Vehicle IS),[1]; [6],56 ± 6 % Vehicle IS
same,reduction of infarct size compared to vehicle,"[1]; 1 mg/kg in IL30 i.v. bolus 10 min before reperfusion, p < 0.01",40%
same,IS (% AAR),[1]; [7],15 ± 2 % AAR
same,IS (% LV),[1]; [7],6 ± 1 % LV
same,IS (% Vehicle IS),[1]; [7],44 ± 7 % Vehicle IS
same,reduction of infarct size compared to control,"[1]; 3 mg/kg in IL30 i.v. bolus 10 min before reperfusion, 3 mg/kg",50% and ~ 50%
same,IS (% AAR),[1]; [8],25 ± 6 % AAR
same,IS (% LV),[1]; [8],7 ± 2 % LV
same,IS (% Vehicle IS),[1]; [8],45 ± 10 % Vehicle IS
same,reduction of infarct size compared to control,"[1]; 10 mg/kg in IL30 i.v. bolus 10 min before reperfusion, 10 mg/kg",50% and ~ 50%
same,AUC(0-∞),"[2]; 3 mg/kg i.v. in IL30, satellite animals",14000 ng·h/mL
same,C5min,"[2]; 3 mg/kg i.v. in IL30, satellite animals, 3 mg/kg",57.9 μM and 23.5 μg/mL
same,AUC(0-∞),"[2]; 10 mg/kg i.v. in IL30, satellite animals",44800 ng·h/mL
same,C5min,"[2]; 10 mg/kg i.v. in IL30, satellite animals, 10 mg/kg",130 μM and 52.8 μg/mL
same,recovery of LVEDP at reperfusion,[3]; 60 min reperfusion after 30 min total ischemia,greatly and significantly improved
same,contractility (dP/dt),[3]; reperfusion,improved
same,developed pressure (Pdev),[3]; reperfusion,improved
same,rate-pressure product (RPP),[3]; reperfusion,significantly higher
same,recovery of coronary flow,[3]; reperfusion,better recovery
same,Emergent AEs: Description,"[4]; 0.5 mg/kg, 0.08 mL/min",2 episodes of back pain
same,Emergent AEs: Intensity,[4]; [9],1 Moderate and 1 Mild
same,Emergent AEs: Relationship,[4]; [9],Excluded
same,Emergent AEs: Description,"[4]; 2 mg/kg, 0.64 mL/min",1 episode of injection site haematoma
same,Emergent AEs: Intensity,[4]; [10],Moderate
same,Emergent AEs: Relationship,[4]; [10],Excluded
same,Emergent AEs: Description,"[4]; 3.5 mg/kg, 5 mL/min",1 episode of presyncope
same,Emergent AEs: Intensity,[4]; [11],Moderate
same,Emergent AEs: Relationship,[4]; [11],Unlikely
same,Emergent AEs: Description,"[4]; 6 mg/kg, 7.5 mL/min",1 episode of infusion site inflammation
same,Emergent AEs: Intensity,[4]; [12],Moderate
same,Emergent AEs: Relationship,[4]; [12],Probable
same,Emergent AEs: Description,"[4]; 6 mg/kg, 23 mL/min",1 episode of vision blurred
same,Emergent AEs: Intensity,[4]; [13],Moderate
same,Emergent AEs: Relationship,[4]; [13],Possible
same,"changes in vital signs, ECG parameters, laboratory tests or physical examinations","[4]; any time, any dose group",No relevant changes
same,clinical tolerability,[4]; [14],well tolerated clinically
same,serious adverse events,[4]; [14],no serious adverse events
